Measurements reported in the supplement of paper PMC8149375.
Several values for one entry are separate records, joined by “and”; a condition that tells them apart may be missing. Equal entries are not always repeated.

Experiments:
Details in all cases: treatment: drug alone; 5 days
[1] = test system: UO-31; experiment: minimum viability across doses, drug alone, relative to DMSO (fraction); higher = less growth inhibition
Procedure: (§1)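 Primary HTS: 8 RCC cell lines treated with 8 doses (up to 10 uM) of each library drug alone for 5 days; viability read by CellTiter-Glo and normalised to DMSO. GI50 was fitted with XLfit (4-parameter), AUC is the area under the dose-response curve, and minimum viability is the lowest fraction of DMSO viability across doses.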

[2] = test system: TK-10; experiment: as above
Procedure: as §1

[3] = test system: 769-P; experiment: as above
Procedure: as §1

[4] = test system: ACHN; experiment: as above
Procedure: as §1

[5] = test system: CAKI-1; experiment: as above
Procedure: as §1

[6] = test system: 786-O; experiment: as above
Procedure: as §1

[7] = test system: A498; experiment: as above
Procedure: as §1

[8] = test system: SN12C; experiment: as above
Procedure: as §1

[9] = test system: UO-31; experiment: GI50, drug alone; higher = less potent
Procedure: as §1

[10] = test system: TK-10; experiment: GI50, drug alone; higher = less potent
Procedure: as §1

[11] = test system: 769-P; experiment: GI50, drug alone; higher = less potent
Procedure: as §1

[12] = test system: ACHN; experiment: GI50, drug alone; higher = less potent
Procedure: as §1

[13] = test system: CAKI-1; experiment: GI50, drug alone; higher = less potent
Procedure: as §1

[14] = test system: 786-O; experiment: GI50, drug alone; higher = less potent
Procedure: as §1

[15] = test system: A498; experiment: GI50, drug alone; higher = less potent
Procedure: as §1

[16] = test system: SN12C; experiment: GI50, drug alone; higher = less potent
Procedure: as §1

[17] = test system: UO-31; experiment: AUC of dose-response viability curve, drug alone (arbitrary (AUC of normalised viability)); higher = less growth inhibition
Procedure: as §1

[18] = test system: TK-10; experiment: as above
Procedure: as §1

[19] = test system: 769-P; experiment: as above
Procedure: as §1

[20] = test system: ACHN; experiment: as above
Procedure: as §1

[21] = test system: CAKI-1; experiment: as above
Procedure: as §1

[22] = test system: 786-O; experiment: as above
Procedure: as §1

[23] = test system: A498; experiment: as above
Procedure: as §1

[24] = test system: SN12C; experiment: as above
Procedure: as §1

| SMILES | minimum viability across doses [1] | minimum viability across doses [2] | minimum viability across doses [3] | minimum viability across doses [4] | minimum viability across doses [5] | minimum viability across doses [6] | minimum viability across doses [7] | minimum viability across doses [8] | GI50, drug alone [9] | GI50, drug alone [10] | GI50, drug alone [11] | GI50, drug alone [12] | GI50, drug alone [13] | GI50, drug alone [14] | GI50, drug alone [15] | GI50, drug alone [16] | AUC of dose-response viability curve [17] | AUC of dose-response viability curve [18] | AUC of dose-response viability curve [19] | AUC of dose-response viability curve [20] | AUC of dose-response viability curve [21] | AUC of dose-response viability curve [22] | AUC of dose-response viability curve [23] | AUC of dose-response viability curve [24] |
| --- | --- | --- | --- | --- | --- | --- | --- | --- | --- | --- | --- | --- | --- | --- | --- | --- | --- | --- | --- | --- | --- | --- | --- | --- |
| CCCCOc1c(C(=O)c2c(F)cc(C)cc2F)cnc2[nH]ncc12 | 0.00742 | 0.47 | 0.562 | 0.198 | 0.745 | 0.0155 | 0.575 | 0.564 | 0.984 µM | 2.45 µM | > 10 µM | 0.267 µM | > 10 µM | 0.0969 µM | > 10 µM | > 10 µM | 3.45 | 2.35 | 2.95 | 1.93 | 3.12 | 1.46 | 3.32 | 2.98 |
| CCOc1ccn(-c2ccc(F)cc2)c(=O)c1C(=O)Nc1ccc(Oc2ccnc(N)c2Cl)c(F)c1 | 0.722 | 0.665 | 0.817 | 0.443 | 0.47 | 0.503 | 0.87 | 0.75 | > 10 µM | > 10 µM | > 10 µM | 8.82 µM | > 10 µM | > 10 µM | > 10 µM | > 10 µM | 4.18 | 2.99 | 3.17 | 3.06 | 2.99 | 2.3 | 3.52 | 3.14 |
| O=C1NC(=O)/C(=C/c2ccc(-c3ccc(F)cc3O)o2)S1 | 0.244 | 0.853 | 0.905 | 0.872 | 0.955 | 0.694 | 1.21 | 0.917 | 4.73 µM | > 10 µM | > 10 µM | > 10 µM | > 10 µM | > 10 µM | > 10 µM | > 10 µM | 4.02 | 3.25 | 3.41 | 3.49 | 3.51 | 2.68 | 4.49 | 3.48 |
| N#Cc1c(O)c2c(-c3ccc(-c4ccccc4O)cc3)csc2[nH]c1=O | 0.948 | 0.929 | 0.963 | 0.904 | 0.977 | 0.823 | 0.9 | 0.868 | > 10 µM | > 10 µM | > 10 µM | > 10 µM | > 10 µM | > 10 µM | > 10 µM | > 10 µM | 4.14 | 3.6 | 3.7 | 3.45 | 3.65 | 3.47 | 3.53 | 3.39 |
| O=C1NC(=O)/C(=C/c2ccc3nccnc3c2)S1 | 0.902 | 0.802 | 0.891 | 0.837 | 0.648 | 0.651 | 0.869 | 0.805 | > 10 µM | > 10 µM | > 10 µM | > 10 µM | > 10 µM | > 10 µM | > 10 µM | > 10 µM | 4.01 | 3.3 | 3.39 | 3.28 | 3.43 | 3.04 | 3.39 | 3.19 |
| Cc1c(NC(=O)OC[C@@H]2COCCN2)cn2ncnc(Nc3ccc4c(cnn4Cc4cccc(F)c4)c3)c12.Cl | 0.929 | 0.234 | 0.368 | 0.419 | 0.573 | 0.592 | 0.861 | 0.677 | > 10 µM | 1.94 µM | 5.19 µM | 4.1 µM | > 10 µM | > 10 µM | > 10 µM | > 10 µM | 4.06 | 2.53 | 2.92 | 2.75 | 3.17 | 3.22 | 3.52 | 3.22 |
| Cc1cc2c(F)c(Oc3ncnn4cc(OC[C@@H](C)O)c(C)c34)ccc2[nH]1 | 0.457 | 0.733 | 0.901 | 0.628 | 0.427 | 0.668 | 1.09 | 0.909 | 9.55 µM | > 10 µM | > 10 µM | > 10 µM | 8.98 µM | > 10 µM | > 10 µM | > 10 µM | 4.46 | 3.23 | 3.39 | 3.04 | 3.4 | 3.09 | 4.21 | 3.28 |
| C[C@@H]1COC(Nc2ccc3ncnc(Nc4ccc(OCc5nccs5)c(Cl)c4)c3c2)=N1 | 0.919 | 0.369 | 0.431 | 0.433 | 0.478 | 0.5 | 1.1 | 0.76 | > 10 µM | 2.21 µM | 4.05 µM | 1.88 µM | 9.75 µM | > 10 µM | > 10 µM | > 10 µM | 4.74 | 2.46 | 2.72 | 2.8 | 3.13 | 2.6 | 4.91 | 3.25 |
| O=C1NC(=O)/C(=C/c2ccc3c(c2)OC(F)(F)O3)S1 | 0.92 | 0.858 | 0.947 | 0.93 | 0.98 | 0.474 | 0.83 | 0.775 | > 10 µM | > 10 µM | > 10 µM | > 10 µM | > 10 µM | > 10 µM | > 10 µM | > 10 µM | 4.4 | 3.24 | 3.5 | 3.46 | 3.54 | 2.35 | 3.81 | 3.07 |
| Cc1cnc(Nc2ccc(N3CCN(C)CC3)cc2)nc1Nc1cccc(S(=O)(=O)NC(C)(C)C)c1 | 0.0126 and 0.00902 | 0.00169 and 0.00288 | 0.0716 and 0.0287 | 0.00241 and 0.0043 |  | 0.011 and 0.00951 | 0.19 and 0.161 |  | 3.06 µM and 2.23 µM | 0.596 µM and 0.364 µM | 3.64 µM and 1.86 µM | 0.394 µM and 0.247 µM | 0.523 µM and 0.493 µM | 1.63 µM and 1.1 µM | 8.98 µM and 9.2 µM | 2.19 µM and 1.47 µM | 3.84 and 3.52 | 2.15 and 1.95 | 2.9 and 2.62 | 2.1 and 1.82 | 2.2 and 2.24 | 2.78 and 2.6 | 3.84 and 4.19 | 2.78 and 2.61 |
| CN(C)Cc1cccc(N/C(=C2\C(=O)Nc3cc(C(=O)N(C)C)ccc32)c2ccccc2)c1 | 0.605 | 0.481 | 0.867 | 0.127 | 0.12 | 0.524 | 1.14 | 0.382 | 9.91 µM | 9.6 µM | > 10 µM | 2.67 µM | 4 µM | > 10 µM | > 10 µM | 8.69 µM | 4.64 | 2.94 | 3.43 | 2.8 | 3.08 | 2.81 | 4.62 | 3.05 |
| O=C(NC[C@H](O)CO)c1ccncc1Nc1ccc(I)cc1F | 0.367 | 0.282 | 0.268 | 0.273 | 0.203 | 0.292 | 0.687 | 0.409 | 9.22 µM | 0.715 µM | 1.14 µM | 0.56 µM | 0.654 µM | 0.247 µM | > 10 µM | 5.97 µM | 4.06 | 2.12 | 2.44 | 2.11 | 2.27 | 1.84 | 4.02 | 2.62 |
| Cc1n[nH]c2ccc(-c3cncc(OC[C@@H](N)Cc4ccccc4)c3)cc12 | 0.00834 | 0.141 | 0.0141 | 0.00528 | 0.073 | 0.00649 | 0.0113 | 0.00861 | 0.887 µM | 1.39 µM | 2.01 µM | 0.667 µM | 1.22 µM | 0.879 µM | 1.16 µM | 1.43 µM | 2.35 | 2.54 | 2.74 | 2.28 | 2.6 | 2.19 | 2.46 | 2.55 |
| Cc1ccc(C(=O)Nc2ccc(CN3CCN(C)CC3)c(C(F)(F)F)c2)cc1C#Cc1cnc2cccnn12 |  |  |  |  |  |  |  |  | 1.25 µM | 0.531 µM | 2.21 µM | 0.327 µM | 0.486 µM | 0.936 µM | 2.09 µM | 0.942 µM |  |  |  |  |  |  |  |  |
| CCS(=O)(=O)N1CC(CC#N)(n2cc(-c3ncnc4[nH]ccc34)cn2)C1 | 1.11 | 0.817 | 0.953 | 0.758 | 0.926 | 0.619 | 1.07 | 0.885 | > 10 µM | > 10 µM | > 10 µM | > 10 µM | > 10 µM | > 10 µM | > 10 µM | > 10 µM | 4.72 | 3.09 | 3.62 | 3.17 | 3.58 | 3.07 | 4.43 | 3.36 |
| Nc1nccc(Oc2ccc(NC(=O)c3c[nH]cc(-c4ccc(F)cc4)c3=O)cc2F)c1Cl | 0.00247 | 0.689 | 0.951 | 0.649 | 0.716 | 0.607 | 0.973 | 0.711 | 3.8 µM | > 10 µM | > 10 µM | > 10 µM | > 10 µM | > 10 µM | > 10 µM | > 10 µM | 4.74 | 2.97 | 3.52 | 3.5 | 3.45 | 2.73 | 4.08 | 3.25 |
| CN(C[C@@H]1COCCO1)S(=O)(=O)Nc1ccc2ccc3ncc(-c4cnn(C)c4)cc3c(=O)c2c1 [MK-2461] | 1.03 | 0.649 | 0.772 | 0.217 | 0.0916 | 0.653 | 0.968 | 0.727 | > 10 µM | > 10 µM | > 10 µM | 1.72 µM | 1.12 µM | > 10 µM | > 10 µM | > 10 µM |  | 2.8 | 3.6 | 2.6 | 2.48 | 5.52 | 7.41 | 3.09 |
| Nc1ccc(-c2ccc3ncc4ccc(=O)n(-c5cccc(C(F)(F)F)c5)c4c3c2)cn1 [Torin 2] | 0.0112 | 0.0151 | 0.0587 | 0.0442 | 0.0161 | 0.00282 | 0.0258 | 0.0362 | 0.012 µM |  | 0.0398 µM | 0.00967 µM | 0.0322 µM | 0.00639 µM | 0.0354 µM | 0.0203 µM | 0.591 | 0.982 | 1.2 | 0.678 | 1.07 | 0.512 | 1.25 | 1.02 |
